Data taken from patent US6548518B2, “Methods of treating gastro-esophogeal reflux disease using (-) norcisapride in combination with proton pump inhibitors or H2 receptor antagonists” (Sepracor, Inc., priority 1999, dated 2003).

What was measured:
[1] = co-administration with ketoconazole; inhibition of metabolic elimination of cisapride; cited from earlier work
[2] = target: T1, 5-HT3 receptor (Mus musculus, UniProt P23979); assay: Radioligand binding to 5-HT3 receptor subtypes derived from N1E-115 cells (Cerep); conditions: Table 3; ratio of IC50 at 5-HT3 to IC50 at 5-HT4
T1 construct: host or cells: N1E-115 cells
T1 sequence (P23979 24-489): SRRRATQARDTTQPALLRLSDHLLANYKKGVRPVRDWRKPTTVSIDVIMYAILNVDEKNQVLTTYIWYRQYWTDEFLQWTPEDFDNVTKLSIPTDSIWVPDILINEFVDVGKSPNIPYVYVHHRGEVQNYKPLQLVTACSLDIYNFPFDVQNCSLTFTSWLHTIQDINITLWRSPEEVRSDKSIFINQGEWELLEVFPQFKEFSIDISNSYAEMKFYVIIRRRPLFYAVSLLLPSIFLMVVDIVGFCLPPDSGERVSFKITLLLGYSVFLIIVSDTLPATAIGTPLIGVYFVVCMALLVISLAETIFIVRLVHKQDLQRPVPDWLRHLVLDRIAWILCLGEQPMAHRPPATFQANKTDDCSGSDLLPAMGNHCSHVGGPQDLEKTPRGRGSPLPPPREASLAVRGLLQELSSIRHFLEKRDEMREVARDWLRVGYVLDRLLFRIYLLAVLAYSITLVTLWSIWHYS
Procedure: Following incubation with the appropriate ligands, the preparations were rapidly filtered under vacuum through GF/B glass fiber filters and washed with ice-cold buffer using a Brandel or Packard cell harvester.
Specific radioligand binding to the receptor was defined as the difference between total binding and nonspecific binding determined in the presence of an excess of unlabeled ligand. Results were expressed as a percent inhibition of specific binding obtained in the presence of the compounds.

5-HT3/5-HT4 Ratio [2] | Structure (SMILES) | increase of the steady-state plasma levels [1] [fold]
– | COc1cc(N)c(Cl)cc1C(=O)N[C@H]1CCN(CCCOc2ccc(F)cc2)C[C@H]1OC (racemic) [(±) Cisapride, cis-4-amino-5-chloro-N-[1-[3-(4-fluorophenoxy)propyl]-3-methoxy-4-piperidinyl]-2-methoxybenzamide] | 8
0.012 | COc1cc(N)c(Cl)cc1C(=O)NC1CCNCC1OC (racemic) [(±) Norcisapride, 4-amino-5-chloro-N-(3-methoxy-4-piperidinyl)-2-methoxybenzamide] | –
0.014 | COc1cc(N)c(Cl)cc1C(=O)NC1CCNCC1OC (single isomer, unassigned; (+)) [(+) Norcisapride] | –
0.023 | COc1cc(N)c(Cl)cc1C(=O)NC1CCNCC1OC (single isomer, unassigned; (-)) [(−) Norcisapride] | –
